We go through four compounds from US20250367631A1, “TWO PHASE FLOWS FOR REACTIONS AND SEPARATIONS” (University of Delaware, priority 2024, published 2025).

Each structure is given as a SMILES string. Where two headings read alike, the source gives them in different places.

The conditions of data set [1]: experimentally shown, Wang et al., cited from earlier work.
The conditions of data set [2]: per Chen et al., cited from earlier work; for Diffusivity: HMF in the organic solvent; for Partition Coefficient: HMF, organic solvent/water.
Data set [3] is described as follows: Organic solvent properties used in the CFD model (Table 2). The data set is classed as physicochemical. Conditions: for Density / Dynamic viscosity: organic solvent; for Interfacial Tension: organic solvent / water. From the text: Principal component analysis (PCA) was used to identify the number of features required to capture the system's behavior. Considering material properties and dimensionless groups of both phases gave a total of 26 features (See Table 1 and definitions in the Supplemental Information (SI) herein below). The dimensionless groups were based on previous work. See, e.g., Chen, supra; Zhao, Y.; Chen, G.; Yuan, Q. “Liquid-liquid two-phase flow patterns in a rectangular microchannel.” AIChE Journal 2006, 52 (12), 4052-4060; Yagodnitsyna, A. A.; Kovalev, A. V.; Bilsky, A. V. “Flow patterns of immiscible liquid-liquid flow in a rectangular microchannel with T-junction.” Chemical Engineering Journal 2016, 303, 547-554; Zhao, C. X.; Middelberg, A. P. J. “Two-phase microfluidic flows.” Chemical Engineering Science 2011, 66 (7), 1394-1411. Apart from PCA, feature importance can rank features for classifying flowpatterns. A clustered covariance matrix may be employed to group dependent variables. We implemented these algorithms using the sklearn library in Python.
FIG. 11a, b, d and FIG. 11c maps the conditions for our experimental and computational flow patterns, respectively. As the diameter increases, different flow conditions (total volumetric flow rate, org/aq (v/v) ratio, various organic solvents) lead to varying patterns. […] For larger diameters, the parallel flow becomes prominent (FIG. 11c). […] At lower experimental flow rates (0.1-10 ml/min), no irregular flow is observed.

`Cc1cccc(O)c1` [m-cresol]: the “KHMF (HMF partition coefficient)” value was 20.6 in data set [1] (25° C.) and 4.2 in data set [1] (150° C.).
As to `CCCC(C)O` (centres unmarked) [2-pentanol], in data set [2], the Diffusivity is 3.81 × 10^−10 m^2/s and the “Partition Coefficient” value is 1.3 ± 0.07. For the same compound, in data set [3], the Density turned out to be 812 kg m^−3, the Dynamic viscosity is given as 3.47 × 10^−3 Pa · s and the “Interfacial Tension” value is on record as 0.0034 N m^−1.
On to `CCOC(C)=O` [EtAc, ethyl acetate], for which, in data set [2], the Diffusivity is 2.87 × 10^−9 m^2/s and the “Partition Coefficient” value is given as 1.4 ± 0.05. In data set [3], the Density was found to be 900 kg m^−3, the Dynamic viscosity is given as 4.41 × 10^−4 Pa · s and the “Interfacial Tension” value stood at 0.0074 N m^−1.
Turning to `CC(=O)CC(C)C` [MIBK, methyl isobutyl ketone], in data set [2], the Diffusivity is 2.43 × 10^−9 m^2/s and the “Partition Coefficient” value is reported as 1.1 ± 0.03. In data set [3], the Density was 684 kg m^−3, the Dynamic viscosity is reported as 5.85 × 10^−4 Pa · s and the “Interfacial Tension” value came to 0.0157 N m^−1.
